Assay results as given in patent US5726302A, “Water soluble adenosine kinase inhibitors” (Gensia Inc., priority 1995, dated 1998).
pIC50, pKi: −log10 of the molar value. Counter-ions that a name gives are not always drawn. Like-named read-outs stand apart in the source and are kept apart here. Each block holds one compound with its values, some of them ahead of it.

What was measured:
adenosine kinase = conditions: read-out: Ki, inhibition of adenosine kinase; cited from earlier work
rat cardiomyocytes = conditions: inhibition of adenosine deaminase alone; cited from earlier work
[1] = tested on: isolated guinea pig hearts; conditions: in the absence of ADA inhibition; cited from earlier work
isolated rat hearts = conditions: alone, cited from earlier work
dog hearts = conditions: in vivo; cited from earlier work
mice [2] = conditions: cited from earlier work
anesthetized rats = conditions: cited from earlier work
ischemic cerebral injury = conditions: Phillis et al.; cited from earlier work
male SA rats [3] = assay: Anticonvulsant activity, maximal electroshock (MES) model; assay type: in vivo; conditions: Rattus norvegicus, 1 h
Procedure: The anticonvulsant activity of the tested compounds was evaluated in male SA rats (100-150 g, Simonsen) using the maximal electroshock (MES) model described in Swinyard et al., Antiepileptic Drugs, 3d Ed. at 85-102 (Levy, et al., eds.), N.Y.: Raven Press (1989). The rats were maintained on a 12/12 light/dark cycle in temperature controlled facilities with free access to food and water. For p.o. administration, the animals are fasted overnight, prior to the experiment. One hour prior to seizure testing, the animals were injected interperitoneally (ip) or orally (per os, […]) with one of various doses of test compound dissolved in DMSO or PEG 400.
This endpoint was expressed as the percentage of animals in which the response was inhibited.

male SA rats [4] = assay: Analgesic activity, hot plate; assay type: in vivo; conditions: Rattus norvegicus, ip
male SA rats [5] = assay: Analgesic activity, tail flick; assay type: in vivo; conditions: Rattus norvegicus, ip
Rats = assay: Anti-inflammatory activity, carrageenan paw; assay type: in vivo, rat; conditions: 10 mg/kg, swelling after 3 hours
Procedure: Carrageenan (Type λ) was suspended in sterile PBS at 1% (w/v), autoclaved for 30 minutes, and stored at room temperature. Rats were pretreated with vehicle or AK inhibitor (10 mg/kg) by oral gavage or i.p. administration and the volume of the left hind paw was measured using a water displacement plethysmometer (Stoelting Co., Wood Dale, Ill.). One hour after oral treatment or 30 minutes after i.p. treatment, the rats were briefly anesthetized, and 0.1 ml of the carrageenan solution was injected subcutaneously into the planar surface of the left hind paw. The ensuing paw swelling was measured by plethysmometry after 3 hours. The paw volume in millileters was subtracted from the pre-injection paw volume. Data are presented as the percent inhibition of paw swelling in AK inhibitor treated animals, compared to vehicle treated control animals.

Water solubility = assay type: physicochemical
Procedure: The sample was sonicated for a period of up to 20 minutes. If a solution was not obtained, further solvent was added and the process was repeated until a clear solution was obtained, and the results were recorded. Solutions used were 50 mM potassium biphthalate (pH 4); 100 mM glycine (pH 9); 25 mM sodium carbonate and 25 mM sodium bicarbonate (pH 10); or deionized water (DI).

[6] = target: partially purified pig heart adenosine kinase (Sus scrofa, UniProt A0A5G2R0F5); assay: biochemical; conditions: for pIC50: pig heart adenosine kinase, 0.5 μM adenosine, pH 7.0, 20 minutes at 37° C, read-out: AK Inhibition (IC50)
Procedure: Adenosine kinase activity was measured essentially as described by Yamada et al Biochim. Biophys. Acta 660, 36-43 (1988) with a few minor modifications. Assay mixtures contained 50 mM TRIS-maleate buffer, pH 7.0, 0.1% BSA, 1 mM ATP 1 mM MgCl2, 0.5 μM [U-^14 C] adenosine (400-600 mCi/mmol) and varying duplicate concentrations of inhibitor. The reactions were initiated by addition of approximately 0.1 μU partially purified pig heart adenosine kinase, where one unit is defined as that amount of enzyme required to phosphorylate 1 μmol adenosine per minute. The reactions were incubated for 20 minutes at 37° C. The assay was quenched upon spotting 30 μL aliquots onto 2 cm^2 pieces of Whatman DE81 anion exchange paper. The paper squares were washed for 3 minutes in 6 L distilled/deionized water to remove the unreacted adenosine. […] The amount of ^14 C-AMP was quantified by scintillation counting.

mice [7] = assay: HPLC analysis of plasma for metabolism in mice after oral administration; assay type: in vivo; conditions: 10 mg/kg
Female SA rats = assay: Liver toxicity assay; assay type: in vivo, rat; conditions: iv infusion 2 x 37.5 μmole/kg, 12 hours after second dose
Procedure: Female SA rats (150-200 g) are anesthetized with halothane and cannulated via the internal jugular vein. The animals are allowed to recover for 3 days. At this time, 37.5 μmole/kg of an AK inhibitor is dissolved in 50% PEG400 and infused through the jugular catheter over 20 minutes. Twelve hours later, an additional 37.5 μmole/kg is infused over 20 minutes (total dose=75 μmole/kg). […] Liver enzymes (serum glutamic-oxaloacetic transaminase (SGOT), serum glutamic-pyruvic transaminase (SGPT), alkaline phosphatase) and total bilirubin in the serum samples are determined by a commercial laboratory.

[8] = po, one hour after dosing, fasted
[9] = ip, 30 minutes before carrageenan
[10] = po, one hour before carrageenan
[11] = pH 4 (50 mM potassium biphthalate)

Chain of partially purified pig heart adenosine kinase (A0A5G2R0F5 1-362): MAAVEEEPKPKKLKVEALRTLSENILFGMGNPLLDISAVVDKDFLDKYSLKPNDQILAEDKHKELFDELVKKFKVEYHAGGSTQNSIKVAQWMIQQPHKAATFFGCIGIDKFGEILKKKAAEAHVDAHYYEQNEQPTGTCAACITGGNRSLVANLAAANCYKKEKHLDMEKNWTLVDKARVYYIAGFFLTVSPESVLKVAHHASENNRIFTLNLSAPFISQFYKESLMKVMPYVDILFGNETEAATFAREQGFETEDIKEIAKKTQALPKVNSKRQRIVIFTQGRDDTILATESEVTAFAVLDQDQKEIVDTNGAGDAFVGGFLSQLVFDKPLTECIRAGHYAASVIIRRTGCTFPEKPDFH

Compound: OC[C@H]1O[C@@H](n2cnc3c(NCCCCCCCCCCCCNc4ncnc5c4ncn5[C@@H]4O[C@H](CO)[C@@H](O)[C@H]4O)ncnc32)[C@H](O)[C@@H]1O [1,12-bis(adenosin-N^6-yl)dodecane]
pKi (adenosine kinase): > 7.00

Compound: OC[C@H]1O[C@@H](n2cnc3c2N=CNC[C@H]3O)C[C@@H]1O [2'-deoxycoformycin]
effect on adenosine release from the cells (rat cardiomyocytes): no effect on adenosine release

Compound: NC[C@H]1O[C@@H](n2cnc3c(N)ncnc32)[C@H](O)[C@@H]1O [5'-amino-5'-deoxyadenosine]
pKi (adenosine kinase): > 7.00
increase of adenosine release [1]: not apparent in the absence of ADA inhibition

Compound: Nc1ncnc2c1c(I)cn2[C@@H]1O[C@H](CO)[C@@H](O)[C@H]1O [5-iodotubercidin]
increase in perfusate adenosine concentration (isolated rat hearts; hypoxic, anoxic or ischemic conditions): no increase in perfusate adenosine concentration
increase in perfusate adenosine concentration (isolated rat hearts; normoxic conditions): no increase in perfusate adenosine concentration
effects in dog hearts subjected to ischemia and reperfusion (dog hearts): inconsistent effects
general flaccidity (skeletal muscle relaxation) (mice [2]): pronounced general flaccidity
hypothermia (mice [2]): hypothermia
spontaneous locomotor activity (mice [2]): much-reduced spontaneous locomotor activity
blood pressure (anesthetized rats): decrease blood pressure
heart rate (anesthetized rats): decrease blood pressure and heart rate
protection against ischemic cerebral injury (ischemic cerebral injury): apparently does not protect against ischemic cerebral injury

Compound: C[C@H]1O[C@@H](n2cc(I)c3c(NCc4ccccn4)ncnc32)[C@H](O)[C@@H]1O [Compound 41, 4-N-(2-Pyridylmethylamino)-5-iodo-7-(5-deoxy-1 -β-D-ribofuranosyl)pyrrolo[2,3-d]pyrimidine]
pIC50 [6]: 7.15
ED50 (male SA rats [4]): 1.2 mg/kg
ED50 (male SA rats [5]): < 1 mg/kg
Carrageenan Paw (% inhibition) of paw swelling (Rats; [9]): 84.8%
Carrageenan Paw (% inhibition) of paw swelling (Rats; [10]): 90.6%

Compound: C[C@H]1O[C@@H](n2cc(I)c3c(NCc4ccncc4)ncnc32)[C@H](O)[C@@H]1O [Compound 42, 4-N-(4-pyridylmethylamino)-5-iodo-7-(5-deoxy-1-β-D-ribofuranosyl)pyrrolo[2,3-d]pyrimidine]
ED50 (male SA rats [3]; ip): 2 mg/kg

Compound: C[C@H]1O[C@@H](n2cc(I)c3c(NCCc4ccccn4)ncnc32)[C@H](O)[C@@H]1O [Compound 43, 4-N-(2-(2-pyridylethyl)amino)-5-iodo-7-(5-deoxy-1-β-D-ribofuranosyl)pyrrolo[2,3-d]pyrimidine]
AK inhibition in vitro ([6]; in vitro): weak AK inhibitor in vitro
pIC50 [6]: 5.00
Carrageenan Paw (% inhibition) of paw swelling (Rats; [9]): 58.6%
Carrageenan Paw (% inhibition) of paw swelling (Rats; [10]): 69.7%
metabolism in mice shown by HPLC analysis of plasma (mice [7]): generate a potent AK inhibitor

Compound: C[C@H]1O[C@@H](n2cc(I)c3c(N)ncnc32)[C@H](O)[C@@H]1O [REF. A]
Alkaline Phosphatase (Female SA rats): 163 IU/L
SGOT (Female SA rats): 508 IU/L
SGPT (Female SA rats): 76 IU/L
Total Bilirubin (Female SA rats): 0.76 mg/dL
general flaccidity (skeletal muscle relaxation) (mice [2]): pronounced general flaccidity
hypothermia (mice [2]): hypothermia
spontaneous locomotor activity (mice [2]): much-reduced spontaneous locomotor activity
blood pressure (anesthetized rats): decrease blood pressure
heart rate (anesthetized rats): decrease blood pressure and heart rate

Compound: NC[C@H]1O[C@@H](n2nc(Br)c3c(N)ncnc32)[C@H](O)[C@@H]1O [REF. B, 4amino-1-(5-amino-5-deoxy-1-D-ribofuranosyl)-3-bromopyrazolo[3,4d]pyrimidne HCL]
Alkaline Phosphatase (Female SA rats): 113 IU/L
SGOT (Female SA rats): 100 IU/L
SGPT (Female SA rats): 41 IU/L
Total Bilirubin (Female SA rats): 0.30 mg/dL

More lines, main results first:

solubility (Water solubility; deionized water (DI)): > 5000 µg/mL
Compound: C[C@H]1O[C@@H](n2cc(-c3ccccc3)c3c(Nc4ccc(CN(C)C)cc4)ncnc32)[C@H](O)[C@@H]1O [Compound 1, 4-N(N,N-Dimethylaminomethylphenyl)amino-5-phenyl-7-(5-deoxy-β-D-ribofuranosyl)pyrrolo[2,,3-d]pyrimidine]
ED50 (male SA rats [3]; [8]): > 20 mg/kg
ED50 (male SA rats [4]): 15.2 mg/kg
ED50 (male SA rats [5]): 15 mg/kg
Carrageenan Paw (% inhibition) of paw swelling (Rats; [9]): 26.0%
Carrageenan Paw (% inhibition) of paw swelling (Rats; [10]): 19.2%

pIC50 [6]: 8.70
solubility (Water solubility; [11]): > 1000 µg/mL
Compound: C[C@H]1O[C@@H](n2cc(-c3ccccc3)c3c(Nc4ccc(CCN5CCOCC5)cc4)ncnc32)[C@H](O)[C@@H]1O [Compound 3, 4-N[2-(4-morpholino)ethylphenyl]amino-5-phenyl-7-(5-deoxy-β-D-ribofuranosyl)pyrrolo[2,3-d]pyrimidine]
ED50 (male SA rats [3]; [8]): > 40 mg/kg

pIC50 [6]: 9.00
solubility (Water solubility; [11]): > 1000 µg/mL
Compound: C[C@H]1O[C@@H](n2cc(-c3ccccc3)c3c(Nc4ccc(CCN(C)C)cc4)ncnc32)[C@H](O)[C@@H]1O [Compound 7, 4-N[2-N,N-dimethylaminoethylphenyl]amino-5-phenyl-7-(5-deoxy-β-D-fibofuranosyl)pyrrolo[2,3-d]pyrimidine]
Carrageenan Paw (% inhibition) of paw swelling (Rats; [9]): 19.0%
Carrageenan Paw (% inhibition) of paw swelling (Rats; [10]): 7.7%

pIC50 [6]: 5.52
solubility (Water solubility; pH 9 (100 mM glycine)): > 1000 µg/mL
Compound: CC(=O)NS(=O)(=O)c1ccc(Nc2ncnc3c2c(-c2ccccc2)cn3[C@@H]2O[C@H](C)[C@@H](O)[C@H]2O)cc1 [Compound 40]
ED50 (male SA rats [3]; ip): > 5 mg/kg

pIC50 [6]: 7.17
Compound: C[C@H]1O[C@@H](n2cc(-c3ccccc3)c3c(NCc4ccncc4)ncnc32)[C@H](O)[C@@H]1O [Compound 49, 4-N-(4-pyridylmethyl)amino-5-phenyl-7-(5-deoxy-1-β-D-ribofuranosyl)-pyrrolo[2,3-d]pyrimidine]
ED50 (male SA rats [3]; [8]): 40 mg/kg
